{"source": "patent US4626271A", "about": "“Cyanobacterin herbicide” (priority 1985, dated 1986)", "key": {"[1]": {"test_system": "Lemna gibba, L.minor and Lemna 6746 (Duckweed)", "experiment": "Use against aquatic plants (frond multiplication, toxicity)", "assay_type": "in vivo", "experimental": "The effect of cyanobacterin was initially tested on the aquatic angiosperms, Lemna gibba, L.minor and Lemna 6746 (Duckweed). Cyanobacterin stopped frond multiplication at a minimum dose of 0.5 μg per ml of growth medium (1.1 μM). The plants recovered after about 7-12 days. Presumably, this is due to degradation of the cyanobacterin over time which drops the dosage below the minimum. At a concentration of 1.0 μg/ml (2.3 μM), cyanobacterin is toxic to Lemna. The plants generally appear normal for 10-15 days after which the roots fall off and the leaves become chlorotic."}, "[2]": {"test_system": "Zea Mays of the hybrid variety Goldencross Bantam", "experiment": "Spray treatment of sweet corn", "assay_type": "in vivo", "settings": "1.0 milligrams, Example I composition", "experimental": "(§1) 10 mg of cyanobacterin dissolved in lml. of ethyl ether was mixed with 0.1 ml of the Science \"Sticker\" of Science Products, Co., which contains about 77% Triton B-1956 brand surfactant. 10 ml of water was added and mixed. After mixing for about 30 minutes to allow the ether to evaporate, the composition was ready to apply to plants.\n(§2) A variety of green plants were treated with a cyanobacterin solution prepared in accordance with Example I above. An atomizer was used to spray the plants with a fine spray. Before placing the fluid into an atomizer, the solution was measured and then remeasured after application on the plants.\n(§3) A control solution of 0.1 ml of sticker-ether in 10 ml of distilled water was applied to the control plants. These plants were treated in the same manner as in the cyanobacterin application and measured in the same way. Plants were cut off at the soil line and dried for 16 hours at 110° C.\nZea Mays of the hybrid variety Goldencross Bantam was tested with one plant per pot. A total of nine control plants were used and 14 plants were treated with the cyanobacterin composition of Example I. The plants were treated once, 8 days after germination. After growing for a total of 15 days after treatment, the plants were cut off at the soil line and the dry weight was determined. A control plant dry weight was 227.4 milligrams and the cyanobacterin treated plant dry weight was 59.4 milligrams. The amount of cyanobacterin utilized was 1.0 milligrams."}, "[3]": {"test_system": "Pisum sativum, var. Little Marvel", "experiment": "Spray treatment of pea", "assay_type": "in vivo", "experimental": "as §1, §2, §3\nPisum sativum, var. Little Marvel, plants were tested at a rate of 1 and 2 plants per pot. With one plant per pot, a total of nine control plants were used and 12 cyanobacterin treated plants were utilized. With 2 plants per pot, one control plant was utilized and 2 cyanobacterin treated plants were utilized. The plants were treated 8 and 6 days after germination respectively, with the cyanobacterin compound of Example I. The pots containing 1 plant per pot were treated with 1.5 milligrams and the pots containing 2 plants were treated with 0.6 milligrams of the cyanobacterin compound. The control plant dry weight of a single plant per pot plants after the fifteen days of growth was 363.8 milligrams and 194.9 milligrams for the cyanobacterin treated plant dry weight."}, "Rumex crispus": {"test_system": "Rumex crispus", "experiment": "Spray treatment of curled dock", "assay_type": "in vivo", "settings": "for treated plant dry weight: fifteenth day", "experimental": "as §1, §2, §3\nRumex crispus was grown at a rate of 10 plants or more per pot. A total of 5 control pots were used and 5 pots were treated with the cyanobacterin containing compound of Example I. Seven days after germination the plants were treated with 1.45 milligrams of cyanobacterin. […] By the 9th day, half the plants were dead and half were chlorotic. […] The control plant dry weight at the fifteenth day was 453.3 milligrams and the cyanobacterin dry weight was 93.1 milligrams.\nCurled dock plants were also treated with 0.5 milligrams of cyanobacterin. The plants were treated with the cyanobacterin compound 8 days after germination. On the 7th day after treatment, many of the plants were dead and others were chlorotic."}, "Polygonium convolvulus": {"test_system": "Polygonium convolvulus", "experiment": "Spray treatment of wild buckwheat", "assay_type": "in vivo", "settings": "for treated plant dry weight: fifteenth day", "experimental": "as §1, §2, §3\nPolygonium convolvulus plants were raised at a rate of over 10 plants per pot. Five control pots were used and 5 pots were treated with the cyanobacterin containing compound of the invention.\nThe first plants treated were treated 2 days after germination with 0.29 milligrams of the cyanobacterin. The control plant dry weight at the fifteenth day was 92.4 milligrams and the cyanobacterin treated dry weight was 59.1 milligrams. The second group of plants were treated 4 days after germination with 0.5 milligrams of cyanobacterin."}, "Avena fatua": {"test_system": "Avena fatua", "experiment": "Spray treatment of wild oats", "assay_type": "in vivo", "experimental": "as §1, §2, §3\nAvena fatua plants were grown at a rate of over 10 plants per pot. A total of 5 control pots were used and 5 cyanobacterin treated pots were utilized.\nThree separate concentrations of cyanobacterin were utilized. In group 1 the plants were treated 3 days after germination with 0.44 milligrams of the cyanobacterin. […] A second group were treated with 0.6 milligrams of cyanobacterin two weeks after germination. […] The third group of plants were treated with 1.05 milligrams of cyanobacterin 7 days after germination."}, "Setaria viridis": {"test_system": "Setaria viridis", "experiment": "Spray treatment of green foxtail", "assay_type": "in vivo", "settings": "for treated plant dry weight: fifteenth day", "experimental": "as §1, §2, §3\nSetaria viridis plants were grown at a rate of over 10 per pot. A total of 5 control pots were used and 5 cyanobacterin treated pots were utilized. Two concentrations of cyanobacterin were utilized. In the first group 0.5 milligrams of cyanobacterin was applied to plants 8 days after germination. The control plant dry weight on the fifteenth day after cutting was 365.8 milligrams and the cyanobacterin treated plant dry weight was 176.3 milligrams. A second group of plants was treated with 2.8 milligrams of cyanobacterin 7 days after germination."}, "Application to the soil": {"experiment": "Application to the soil", "assay_type": "in vivo", "excerpt": "(§4) Cyanobacterin, when applied to the soil had no effect. […] Also, it may not be transported through the root vascular system. The Hill reaction is inhibited by cyanobacterin as shown by the use of photosynthetically active pea chloroplasts."}, "photosystem II": {"test_system": "photosystem II", "experiment": "Hill reaction / oxygen evolution in pea chloroplasts", "assay_type": "biochemical", "excerpt": "It is theorized that cyanobacterin acts on green plants by specifically binding to some component of the photosynthetic electron transport system.\nas §4"}, "Hydrophobicity": {"experiment": "Hydrophobicity", "assay_type": "physicochemical"}, "[4]": {"experiment": "Herbicidal effect, amount relative to plant dry weight", "assay_type": "in vivo", "settings": "by dry weight", "excerpt": "The composition may be formulated from high purity cyanobacterin or from crude extracts obtained from the blue-green algae since high purity is not required. […] Additionally, the composition may be formulated from a synthetic cyanobacterin, such as the racemic mixture described by T. T. Jong et al, \"Total synthesis and X-ray structure determination of cyanobacterin\", J. Org. Chem. 49:735-736(1984)."}, "cell growth": {"test_system": "cell growth", "experiment": "Biological activity / cell growth of the anhydro analog", "assay_type": "cell-based", "excerpt": "The cyanobacterin used in this invention may be obtained from Scytonema hofmanni (UTEX 2349 University of Texas Collection, Austin, Tex.) cells. Cyanobacterin is a diaryl substituted gamma-ylidene, gamma-butyro lactone with a chlorine substituent on one of the aromatic rings. […] This compound results from dehydration of the parent compound: [drawing 1]\nIt has been postulated by the inventor that a hydrophilic constituent on the lactone ring is crucial to the activity of cyanobacterin and may be involved in protein binding."}, "[5]": {"test_system": "cyanobacterial spheroplast system", "experiment": "Activity in a cyanobacterial spheroplast system", "assay_type": "cell-based", "excerpt": "(§5) Synthetic cyanobacterin such as the racemic mixture prepared by Jong T. T. et al in J. Org."}, "whole cell growth": {"test_system": "whole cell growth", "experiment": "Whole cell growth measurements, long term studies", "assay_type": "cell-based", "excerpt": "as §5"}}, "note": "Several values for one entry are separate records, joined by “and”; a condition that tells them apart may be missing. Identical values can stand only once."}
{"molecule": "COc1ccc(/C=C2\\OC(=O)C(Cc3cc(Cl)c4c(c3)OCO4)C2(O)C(C)C)cc1", "note": "(stereo not drawn) [cyanobacterin]", "values": [{"measurement": "plant condition by 30 days", "setting": "[1]; 1.0 μg/ml or greater, purified cyanobacterin", "result": "most plants treated with 1.0 μg/ml or greater concentrations of purified cyanobacterin were dead"}, {"measurement": "time until plants recovered", "setting": "[1]; at minimum dose 0.5 μg per ml", "result": "7 to 12", "unit": "days"}, {"measurement": "minimal effective concentration", "setting": "[1]; in growth medium, read-out: minimum dose that stopped frond multiplication", "result": "0.5 µg/mL and 1.1 µM"}, {"measurement": "plant condition by the fifteenth day", "setting": "[2]", "result": "dead"}, {"measurement": "plant condition on the ninth day after treatment", "setting": "[2]", "result": "no new growth"}, {"measurement": "treated plant dry weight", "setting": "[2]; treated once 8 days after germination, 15 days after treatment, control 227.4 milligrams", "result": 59.4, "unit": "milligrams"}, {"measurement": "plant condition on the 15th day", "setting": "[3]; 0.6 to 1.5 milligrams per plant", "result": "all of the cyanobacterin treated plants were dead"}, {"measurement": "treated plant dry weight", "setting": "[3]; 1 plant per pot, 1.5 milligrams, treated 8 days after germination, fifteen days of growth, control 363.8 milligrams", "result": 194.9, "unit": "milligrams"}, {"measurement": "treated plant dry weight", "setting": "[3]; 2 plants per pot, 0.6 milligrams, treated 6 days after germination, control 169.8 milligrams", "result": 101.4, "unit": "milligrams"}, {"measurement": "plant condition by the 15th day", "setting": "Rumex crispus; 0.5 milligrams", "result": "half of the plants were dead, one-quarter were chlorotic and one-quarter were large, green and healthy like the control"}, {"measurement": "treated plant dry weight", "setting": "Rumex crispus; 0.5 milligrams, 8 days after germination, control 451.9 milligrams", "result": 239.1, "unit": "milligrams"}, {"measurement": "plant condition by the 15th day", "setting": "Rumex crispus; 1.45 milligrams", "result": "all were dead except for a few"}, {"measurement": "treated plant dry weight", "setting": "Rumex crispus; 1.45 milligrams, seven days after germination, control 453.3 milligrams", "result": 93.1, "unit": "milligrams"}, {"measurement": "treated plant dry weight", "setting": "Polygonium convolvulus; 0.29 milligrams, 2 days after germination, control 92.4 milligrams", "result": 59.1, "unit": "milligrams"}, {"measurement": "treated plant dry weight", "setting": "Polygonium convolvulus; 0.5 milligrams, 4 days after germination, control 157.8 milligrams", "result": 59.1, "unit": "milligrams"}, {"measurement": "plant condition by the 15th day", "setting": "Polygonium convolvulus; either concentration (0.29 or 0.5 milligrams)", "result": "Only a few of the cyanobacterin treated plants were dead"}, {"measurement": "treated plant dry weight", "setting": "Avena fatua; 0.44 milligrams, 3 days after germination, fifteen days after treatment, control 154.6 milligrams", "result": 115.5, "unit": "milligrams"}, {"measurement": "plant condition at the end of the experiment", "setting": "Avena fatua; 0.44 to 1.05 milligrams", "result": "stressed but overall were still green and growing"}, {"measurement": "treated plant dry weight", "setting": "Avena fatua; 0.6 milligrams, two weeks after germination, fifteen days after treatment, control 328.5 milligrams", "result": 79.5, "unit": "milligrams"}, {"measurement": "treated plant dry weight", "setting": "Avena fatua; 1.05 milligrams, 7 days after germination, fifteenth day, control 489.6 milligrams", "result": 155.8, "unit": "milligrams"}, {"measurement": "treated plant dry weight", "setting": "Setaria viridis; 0.5 milligrams, 8 days after germination, control 365.8 milligrams", "result": 176.3, "unit": "milligrams"}, {"measurement": "plant condition at approximately the 9th day after treatment", "setting": "Setaria viridis; 0.5 or 2.8 milligrams", "result": "approximately half of the plants had died"}, {"measurement": "treated plant dry weight", "setting": "Setaria viridis; 2.8 milligrams, 7 days after germination, control 411.7 milligrams", "result": 217.7, "unit": "milligrams"}, {"measurement": "effect when applied to the soil", "setting": "Application to the soil", "result": "no effect"}, {"measurement": "electron flow from water to electron acceptors", "setting": "photosystem II", "result": "inhibits electron flow"}, {"measurement": "Hill reaction", "setting": "photosystem II; photosynthetically active pea chloroplasts", "result": "inhibited"}, {"measurement": "concentration that completely inhibits oxygen evolution", "setting": "photosystem II; photosynthetically active pea chloroplasts, in the presence of DCPIP", "result": 110, "unit": "nM"}, {"measurement": "hydrophobicity", "setting": "Hydrophobicity", "result": "very hydrophobic"}, {"measurement": "amount effective as a herbicide relative to plant dry weight", "setting": "[4]", "result": "one part of the cyanobacterin to 450 parts of the plant"}]}
{"molecule": "COc1ccc(/C=C2\\OC(=O)C(Cc3cc(Cl)c4c(c3)OCO4)=C2C(C)C)cc1", "note": "[anhydrocyanobacterin]", "values": [{"measurement": "biological activity", "setting": "cell growth", "result": "no biological activity"}, {"measurement": "effect on cell growth", "setting": "cell growth", "result": "no effect on cell growth"}]}
{"molecule": "COc1ccc(/C=C2\\OC(=O)C(Cc3cc(Cl)c4c(c3)OCO4)C2(O)C(C)C)cc1", "note": "(racemic) [Synthetic cyanobacterin]", "values": [{"measurement": "activity relative to cyanobacterin", "setting": "[5]", "result": "about half the activity of cyanobacterin"}, {"measurement": "activity relative to cyanobacterin", "setting": "whole cell growth", "result": "the same activity"}]}
